Measured values reported in patent US6479673B1, “Antiretroviral enantiomeric nucleotide analogs” (Institute of Organic Chemistry and Biochemistry of the …, priority 1992, dated 2002).
Converted amounts (≈) assume the structure as drawn.

What was measured:
[1] = test system: herpes viruses; conditions: racemic mixtures, prior art; cited from earlier work
[2] = test system: HIV-1; assay: HIV-1 induced cytopathicity in MT-4 cells; assay type: cell-based, human immunodeficiency virus type 1; conditions: MT-4 cells; concentration inhibiting HIV-induced cytopathicity by 50%
Method: (§1) The activity of the compounds against HIV-1 and HIV-2 induced cytopathicity was examined in human lymphocyte MT-4 cells. […] The infected cell cultures were then incubated at 37° C. for 5 days in a humidified CO2-controlled incubator. Then, the cytopathicity of the virus was examined by determination of MT-4 cell viability by trypan blue dye staining.

[3] = test system: HIV-2; assay: HIV-2 induced cytopathicity in MT-4 cells; assay type: cell-based, human immunodeficiency virus type 2; conditions: MT-4 cells; concentration inhibiting HIV-induced cytopathicity by 50%
Method: as §1

[4] = test system: MT-4 cells; assay: MT-4 cell viability (cytotoxicity); assay type: cell-based, human; conditions: concentration reducing MT-4 cell viability by 50%
Method: The activity of the compounds against HIV-1 and HIV-2 induced cytopathicity was examined in human lymphocyte MT-4 cells. […]. The infected cell cultures were then incubated at 37° C. for 5 days in a humidified CO2-controlled incubator. Then, the cytopathicity of the virus was examined by determination of MT-4 cell viability by trypan blue dye staining. The results are summarized in Table 1 in comparison with the data on the prototype compounds.

[5] = test system: Moloney murine sarcoma virus (MSV); assay: MSV-induced transformation of C3H/3T3 cells; assay type: cell-based; conditions: concentration inhibiting MSV-induced cell transformation by 50%
Method: The cells were seeded in 1-ml-wells of a 48-well microtiter plate and exposed to 80 PFU (plaque forming units) for 60-90 minutes. Then, the virus was removed and culture medium containing appropriate concentrations of the test compounds were added (1 ml per well). At day 6 post infection, MSV-induced transformation of the cell culture was examined microscopically.

[6] = test system: C3H/3T3 cells; assay: Microscopic alteration of C3H/3T3 cell culture morphology; assay type: cell-based, murine; conditions: concentration that results in a microscopic alteration of C3H/3T3 cell culture morphology
[7] = test system: Moloney murine sarcoma virus (MSV); assay: MSV infection in newborn NMRI mice, intraperitoneal administration; assay type: in vivo; conditions: for Mean day of tumor initiation / Mean day of animal death: NMRI mice; for antiretroviral activity in vivo (in words): dose of 50 mg/kg i.p.
Method: Two gram newborn NMRI mice were injected intramuscularly in the left hind leg with 50 μl of 250-fold diluted stock preparation of Moloney murine sarcoma virus. […] Another group of mice (20 animals) was administered RPMI-1640 medium as placebo. All compounds were solubilized in RPMI-1640 medium. The mice were observed daily for 20 days and the day of tumor initiation and the day of animal death was recorded for each animal. Statistical analyses were performed by calculating the standard deviation.

[8] = test system: retrovirus replication; assay: Anti-retrovirus activity in vitro (conclusions on HIV and MSV tests); assay type: cell-based

Compound | EC50 HIV-1 [2] | EC50 HIV-2 [3] | CC50 [4] | EC50 MSV [5] | MIC [6] | percentage of MSV-infected mice still alive at day 20 post infection ([7]; 10 mg/kg single dose i.p.) | Mean day of tumor initiation ([7]; 10 mg/kg single dose i.p.) | percentage of MSV-infected mice still alive at day 20 post infection ([7]; 50 mg/kg single dose i.p.) | percentage of MSV-infected mice without tumor at day 20 post infection ([7]; 50 mg/kg single dose i.p.) | Mean day of tumor initiation ([7]; 50 mg/kg single dose i.p.) | Mean day of tumor initiation ([7]; 20 mg/kg single dose i.p.) | antiretroviral activity in vivo (in words) [7] | percentage of MSV-infected mice still alive at day 20 post infection ([7]; 20 mg/kg single dose i.p.) | percentage of MSV-infected mice without tumor at day 20 post infection ([7]; 20 mg/kg single dose i.p.) | percentage of MSV-infected mice without tumor at day 20 post infection ([7]; 10 mg/kg single dose i.p.) | Mean day of animal death ([7]; 20 mg/kg single dose i.p.) | other results
C[C@H](Cn1cnc2c(N)ncnc21)OCP(=O)(O)O [PMPA] |  |  |  |  |  |  |  |  |  |  |  |  |  |  |  |  | antiherpetic effect (in words) [1]: devoid of any appreciable antiherpetic effect
Nc1nc(N)c2ncn(C[C@@H](CF)OCP(=O)(O)O)c2n1 [(S)-FPMPDAP] | 4.8 µg/mL (≈ 15 µM) | 3.3 µg/mL (≈ 10.3 µM) | >100 µg/mL | 1.7 µg/mL (≈ 5.31 µM) | >100 µg/mL | (33%) | 8.5 ± 2.6 days | (67%) | (17%) | 11.0 ± 2.1 days |  |  |  |  |  |  | Mean day of tumor initiation ([7]; 25 mg/kg single dose i.p.): 8.3 ± 1.8 days
C[C@@H](Cn1cnc2c(N)ncnc21)OCP(=O)(O)O [(S)-PMPA, 9-(S)-(2-Phosphonomethoxypropyl)adenine] | 78 µg/mL (≈ 272 µM) | 63 µg/mL (≈ 219 µM) | >100 µg/mL | 120 µg/mL (≈ 418 µM) | >100 µg/mL |  | 4.7 ± 0.95 days |  |  | 5.8 ± 0.63 days | 4.5 ± 0.71 days | no marked antiretroviral activity in vivo |  |  |  |  | antiretroviral activity in vitro (in words) [8]: devoid of marked antiretroviral activity
Nc1ncnc2c1ncn2C[C@@H](CF)OCP(=O)(O)O [(S)-FPMPA] | 2.7 µg/mL (≈ 8.85 µM) | 2.6 µg/mL (≈ 8.52 µM) | >100 µg/mL | 1.5 µg/mL (≈ 4.91 µM) | >100 µg/mL | (40%) | 7.7 ± 2.4 days | (100%) | (100%) | >20 days | 11 ± 2.7 days | no marked antiretroviral activity in vivo | (55%) | (31%) |  |  | 
Nc1ncnc2c1ncn2CCOCP(=O)(O)O [PMEA] |  |  | 67 µg/mL (≈ 245 µM) |  | >100 µg/mL | (43%) | 9.8 ± 1.9 days | (90%) | (90%) | 9.0 days | 10.6 ± 2.0 days |  | (66%) | (44%) | (24%) | 14.7 ± 1.8 days | Mean day of animal death ([7]; 10 mg/kg single dose i.p.): 14.2 ± 2.5 days; Mean day of animal death ([7]; 50 mg/kg single dose i.p.): 16.0 days
C[C@H](Cn1cnc2c(N)ncnc21)OCP(=O)(O)O [(R)-PMPA, 9-(R)-(2-Phosphonomethoxypropyl)adenine] | 1.7 µg/mL (≈ 5.92 µM) |  | >100 µg/mL | 0.99 µg/mL (≈ 3.45 µM) | >100 µg/mL | (85%) | 12.9 ± 2.2 days | (100%) | (100%) | >20 days | 13.5 ± 3.5 days |  | (100%) | (80%) | (75%) | >20 days | Mean day of tumor initiation ([7]; 2 mg/kg single dose i.p.): 5.3 ± 1.1 days; percentage of MSV-infected mice still alive at day 20 post infection ([7]; 5 mg/kg single dose i.p.): (20%); percentage of MSV-infected mice without tumor at day 20 post infection ([7]; 5 mg/kg single dose i.p.): (10%); Mean day of tumor initiation ([7]; 5 mg/kg single dose i.p.): 7.11 ± 1.5 days; protection against MSV-induced tumor development (in words) ([7]; single dose of 50 mg/kg i.p.): full protection; concentration markedly inhibitory to retrovirus replication ([8]; in vitro): 1 to 2 µg/mL
